Results: ChEMBL document CHEMBL3885861, “Open TG-GATES”

Species on record: Rattus norvegicus
Assay: Open TG-GATES - Regimen: Daily Repeat
Format: toxicity, organism-based, Sprague-Dawley
Parameters: regimen Daily Repeat, gender Male, age 6 weeks
Settings: in vivo, po, route gavage; for APTT / Bas / Eos / Fbg / Hb / Ht / Lym / MCH / MCHC / MCV / Mono / Neu / PT / Plat / RBC / Ret / WBC: tissue Blood; for KIDNEY_L / KIDNEY_R / KIDNEY_TOTAL: tissue Kidney; for LIVER: tissue Liver; for A/G / ALP / ALT / AST / BUN / CRE / Ca / Cl / DBIL / GLC / IP / K / LDH / Na / PL / RALB / TBIL / TC / TG / TP / gamma-GTP: tissue Plasma
[1] = 300 mg/kg, 72 h, dose level Middle, time 3 day
[2] = 300 mg/kg, […], dose level Middle, time 7 day
[3] = 300 mg/kg, […], dose level Middle, time 14 day
[4] = 300 mg/kg, […], dose level Middle, time 28 day
[5] = 1000 mg/kg, 72 h, dose level High, time 3 day
[6] = 1000 mg/kg, […], dose level High, time 7 day
[7] = 1000 mg/kg, […], dose level High, time 14 day
[8] = 1000 mg/kg, […], dose level High, time 28 day

CC(S)C(=O)NCC(=O)O (centres undefined) [TIOPRONIN]
TERMINAL_BW [1]: 224.5 g
APTT [1]: 22.4 s
Bas [1]: 0%
Eos [1]: 0.8%
Fbg [1]: 299 mg/dL
Hb [1]: 13.5 g/dL
Ht [1]: 40%
Lym [1]: 78.4%
MCH [1]: 21.1 pg
MCHC [1]: 33.6%
MCV [1]: 62.7 fL
Mono [1]: 2.4%
Neu [1]: 17.2%
PT [1]: 15.2 s
Plat [1]: 132 x10_4/uL
RBC [1]: 639.8 x10_4/ul
Ret [1]: 7.5%
WBC [1]: 96 x10_2/uL
KIDNEY_L [1]: 1 g
KIDNEY_R [1]: 1 g
KIDNEY_TOTAL [1]: 2 g
LIVER [1]: 10.7 g
A/G [1]: 1.2
ALP [1]: 1564.4 IU/L
ALT [1]: 42 IU/L
AST [1]: 75.2 IU/L
BUN [1]: 16 mg/dL
CRE [1]: 0.2 mg/dL
Ca [1]: 10.6 mg/dL
Cl [1]: 105.8 meq/L
DBIL [1]: 0 mg/dL
GLC [1]: 187.4 mg/dL
IP [1]: 7.3 mg/dL
K [1]: 4.4 meq/L
LDH [1]: 205.6 IU/L
Na [1]: 140.4 meq/L
PL [1]: 131.4 mg/dL
RALB [1]: 3 g/dL
TBIL [1]: 0.008 mg/dL
TC [1]: 73.4 mg/dL
TG [1]: 71.2 mg/dL
TP [1]: 5.5 g/dL
gamma-GTP [1]: 1.4 IU/L
TERMINAL_BW [2]: 258 g
TERMINAL_BW [3]: 313.9 g
TERMINAL_BW [4]: 381.6 g
APTT [2]: 22.2 s
Bas [2]: 0%
Eos [2]: 1.2%
Fbg [2]: 330.4 mg/dL
Hb [2]: 14 g/dL
Ht [2]: 40.4%
Lym [2]: 77.6%
MCH [2]: 21.7 pg
MCHC [2]: 34.9%
MCV [2]: 62.1 fL
Mono [2]: 2.4%
Neu [2]: 18%
PT [2]: 15.3 s
Plat [2]: 121.4 x10_4/uL
RBC [2]: 649.6 x10_4/ul
Ret [2]: 6.4%
WBC [2]: 101.8 x10_2/uL
APTT [3]: 23.7 s
Bas [3]: 0%
Eos [3]: 1%
Fbg [3]: 287.6 mg/dL
Hb [3]: 14 g/dL
Ht [3]: 41.2%
Lym [3]: 83%
MCH [3]: 20.3 pg
MCHC [3]: 33.9%
MCV [3]: 59.7 fL
Mono [3]: 2.2%
Neu [3]: 13.2%
PT [3]: 15.5 s
Plat [3]: 109.8 x10_4/uL
RBC [3]: 689.8 x10_4/ul
Ret [3]: 5%
WBC [3]: 142 x10_2/uL
APTT [4]: 24.6 s
Bas [4]: 0%
Eos [4]: 1%
Fbg [4]: 323.4 mg/dL
Hb [4]: 15.4 g/dL
Ht [4]: 43.3%
Lym [4]: 82.6%
MCH [4]: 20.1 pg
MCHC [4]: 35.5%
MCV [4]: 56.6 fL
Mono [4]: 2%
Neu [4]: 12.6%
PT [4]: 16.1 s
Plat [4]: 95.9 x10_4/uL
RBC [4]: 764.2 x10_4/ul
Ret [4]: 2.6%
WBC [4]: 146.8 x10_2/uL
KIDNEY_L [2]: 1.1 g
KIDNEY_R [2]: 1.1 g
KIDNEY_TOTAL [2]: 2.2 g
KIDNEY_L [3]: 1.2 g
KIDNEY_R [3]: 1.2 g
KIDNEY_TOTAL [3]: 2.5 g
KIDNEY_L [4]: 1.4 g
KIDNEY_R [4]: 1.4 g
KIDNEY_TOTAL [4]: 2.9 g
LIVER [2]: 12 g
LIVER [3]: 13.9 g
LIVER [4]: 16.5 g
A/G [2]: 1.1
ALP [2]: 1316.6 IU/L
ALT [2]: 36 IU/L
AST [2]: 63.4 IU/L
BUN [2]: 15.8 mg/dL
CRE [2]: 0.1 mg/dL
Ca [2]: 10.6 mg/dL
Cl [2]: 106.6 meq/L
DBIL [2]: 0 mg/dL
GLC [2]: 186.4 mg/dL
IP [2]: 7.3 mg/dL
K [2]: 4.3 meq/L
LDH [2]: 150.2 IU/L
Na [2]: 140.6 meq/L
PL [2]: 144.6 mg/dL
RALB [2]: 2.9 g/dL
TBIL [2]: 0 mg/dL
TC [2]: 70.6 mg/dL
TG [2]: 146.2 mg/dL
TP [2]: 5.5 g/dL
gamma-GTP [2]: 1.8 IU/L
A/G [3]: 1.3
ALP [3]: 1441.2 IU/L
ALT [3]: 43.8 IU/L
AST [3]: 65.8 IU/L
BUN [3]: 20.4 mg/dL
CRE [3]: 0.2 mg/dL
Ca [3]: 10.6 mg/dL
Cl [3]: 106.8 meq/L
DBIL [3]: 0 mg/dL
GLC [3]: 194.6 mg/dL
IP [3]: 6.5 mg/dL
K [3]: 4.4 meq/L
LDH [3]: 143.4 IU/L
Na [3]: 140.8 meq/L
PL [3]: 151.8 mg/dL
RALB [3]: 3.1 g/dL
TBIL [3]: 0.004 mg/dL
TC [3]: 70.8 mg/dL
TG [3]: 155 mg/dL
TP [3]: 5.6 g/dL
gamma-GTP [3]: 2.2 IU/L
A/G [4]: 1.2
ALP [4]: 1229.6 IU/L
ALT [4]: 42.6 IU/L
AST [4]: 64.6 IU/L
BUN [4]: 18.6 mg/dL
CRE [4]: 0.2 mg/dL
Ca [4]: 10.9 mg/dL
Cl [4]: 106 meq/L
DBIL [4]: 0 mg/dL
GLC [4]: 192.4 mg/dL
IP [4]: 6.5 mg/dL
K [4]: 4.1 meq/L
LDH [4]: 154.2 IU/L
Na [4]: 143 meq/L
PL [4]: 142 mg/dL
RALB [4]: 3.3 g/dL
TBIL [4]: 0.016 mg/dL
TC [4]: 72 mg/dL
TG [4]: 127.6 mg/dL
TP [4]: 6.1 g/dL
gamma-GTP [4]: 1.8 IU/L
TERMINAL_BW [5]: 223.7 g
APTT [5]: 23.7 s
Bas [5]: 0%
Eos [5]: 1.2%
Fbg [5]: 288 mg/dL
Hb [5]: 13 g/dL
Ht [5]: 39.2%
Lym [5]: 73.8%
MCH [5]: 20.8 pg
MCHC [5]: 33.2%
MCV [5]: 62.7 fL
Mono [5]: 3.6%
Neu [5]: 20.8%
PT [5]: 15.8 s
Plat [5]: 113.1 x10_4/uL
RBC [5]: 626.6 x10_4/ul
Ret [5]: 6.9%
WBC [5]: 105.8 x10_2/uL
KIDNEY_L [5]: 1 g
KIDNEY_R [5]: 1 g
KIDNEY_TOTAL [5]: 2 g
LIVER [5]: 10.7 g
A/G [5]: 1.3
ALP [5]: 1581.6 IU/L
ALT [5]: 49.2 IU/L
AST [5]: 77.2 IU/L
BUN [5]: 15.2 mg/dL
CRE [5]: 0.2 mg/dL
Ca [5]: 10.7 mg/dL
Cl [5]: 105.8 meq/L
DBIL [5]: 0.002 mg/dL
GLC [5]: 186.2 mg/dL
IP [5]: 7.8 mg/dL
K [5]: 4.4 meq/L
LDH [5]: 173.4 IU/L
Na [5]: 140.8 meq/L
PL [5]: 131 mg/dL
RALB [5]: 2.9 g/dL
TBIL [5]: 0.014 mg/dL
TC [5]: 68.6 mg/dL
TG [5]: 83.4 mg/dL
TP [5]: 5.2 g/dL
gamma-GTP [5]: 1.8 IU/L
TERMINAL_BW [6]: 254.3 g
TERMINAL_BW [7]: 296.9 g
TERMINAL_BW [8]: 364.7 g
APTT [6]: 21.9 s
Bas [6]: 0%
Eos [6]: 1%
Fbg [6]: 297 mg/dL
Hb [6]: 13.4 g/dL
Ht [6]: 39.6%
Lym [6]: 77%
MCH [6]: 21.4 pg
MCHC [6]: 33.8%
MCV [6]: 63.3 fL
Mono [6]: 2.6%
Neu [6]: 18.8%
PT [6]: 15.4 s
Plat [6]: 122.7 x10_4/uL
RBC [6]: 626 x10_4/ul
Ret [6]: 6.8%
WBC [6]: 115.2 x10_2/uL
APTT [7]: 24.7 s
Bas [7]: 0%
Eos [7]: 0.8%
Fbg [7]: 266.2 mg/dL
Hb [7]: 13.9 g/dL
Ht [7]: 41.1%
Lym [7]: 81.2%
MCH [7]: 20.8 pg
MCHC [7]: 33.7%
MCV [7]: 61.7 fL
Mono [7]: 2.4%
Neu [7]: 14.4%
PT [7]: 15.9 s
Plat [7]: 124 x10_4/uL
RBC [7]: 666.8 x10_4/ul
Ret [7]: 5.2%
WBC [7]: 129.5 x10_2/uL
APTT [8]: 24.2 s
Bas [8]: 0%
Eos [8]: 1.2%
Fbg [8]: 300.8 mg/dL
Hb [8]: 15 g/dL
Ht [8]: 42.6%
Lym [8]: 79%
MCH [8]: 19.2 pg
MCHC [8]: 35.3%
MCV [8]: 54.5 fL
Mono [8]: 1.8%
Neu [8]: 16.2%
PT [8]: 16.1 s
Plat [8]: 98.3 x10_4/uL
RBC [8]: 781.4 x10_4/ul
Ret [8]: 3.1%
WBC [8]: 124 x10_2/uL
KIDNEY_L [6]: 1.1 g
KIDNEY_R [6]: 1.2 g
KIDNEY_TOTAL [6]: 2.3 g
KIDNEY_L [7]: 1.3 g
KIDNEY_R [7]: 1.3 g
KIDNEY_TOTAL [7]: 2.6 g
KIDNEY_L [8]: 1.5 g
KIDNEY_R [8]: 1.5 g
KIDNEY_TOTAL [8]: 3 g
LIVER [6]: 12.3 g
LIVER [7]: 13.3 g
LIVER [8]: 15.3 g
A/G [6]: 1.2
ALP [6]: 1407 IU/L
ALT [6]: 45 IU/L
AST [6]: 67.8 IU/L
BUN [6]: 18.4 mg/dL
CRE [6]: 0.1 mg/dL
Ca [6]: 10.8 mg/dL
Cl [6]: 105.4 meq/L
DBIL [6]: 0 mg/dL
GLC [6]: 177.2 mg/dL
IP [6]: 7.9 mg/dL
K [6]: 4.6 meq/L
LDH [6]: 181.4 IU/L
Na [6]: 140 meq/L
PL [6]: 132.6 mg/dL
RALB [6]: 2.9 g/dL
TBIL [6]: 0.006 mg/dL
TC [6]: 67.8 mg/dL
TG [6]: 90.8 mg/dL
TP [6]: 5.2 g/dL
gamma-GTP [6]: 1.8 IU/L
A/G [7]: 1.3
ALP [7]: 1175.6 IU/L
ALT [7]: 41.6 IU/L
AST [7]: 70.4 IU/L
BUN [7]: 23 mg/dL
CRE [7]: 0.2 mg/dL
Ca [7]: 10.5 mg/dL
Cl [7]: 105 meq/L
DBIL [7]: 0 mg/dL
GLC [7]: 182.6 mg/dL
IP [7]: 7 mg/dL
K [7]: 4.4 meq/L
LDH [7]: 182.6 IU/L
Na [7]: 140.2 meq/L
PL [7]: 125.4 mg/dL
RALB [7]: 3.1 g/dL
TBIL [7]: 0.01 mg/dL
TC [7]: 60 mg/dL
TG [7]: 120.2 mg/dL
TP [7]: 5.6 g/dL
gamma-GTP [7]: 2 IU/L
A/G [8]: 1.2
ALP [8]: 1066 IU/L
ALT [8]: 49.2 IU/L
AST [8]: 71.4 IU/L
BUN [8]: 17 mg/dL
CRE [8]: 0.2 mg/dL
Ca [8]: 10.9 mg/dL
Cl [8]: 104.2 meq/L
DBIL [8]: 0 mg/dL
GLC [8]: 180 mg/dL
IP [8]: 7.5 mg/dL
K [8]: 4 meq/L
LDH [8]: 154.6 IU/L
Na [8]: 142.6 meq/L
PL [8]: 135 mg/dL
RALB [8]: 3.2 g/dL
TBIL [8]: 0.03 mg/dL
TC [8]: 63 mg/dL
TG [8]: 106.2 mg/dL
TP [8]: 5.8 g/dL
gamma-GTP [8]: 2 IU/L
